From patent US20170246144A1, “METHOD OF PREVENTING OR TREATING SPINOCEREBELLAR ATAXIA BY ADMINISTRATING SILIBININ” (National Taiwan Normal University, priority 2016, published 2017)
Where two headings read alike, the source gives them in different places.

Legend:
SH-SY5Y cells [1] = assay: JC-1 flow cytometry of mitochondria membrane potential (MMP); format: cell-based, Human; details: 15 μM + 100 mM MSG
Method: FIGS. 7A and 7B show the effects of SB on mitochondria membrane potential (MMP) in SH-SY5Y cells treated with MSG measured by JC-1 staining with a flow cytometry, wherein the control group (Ctrl) was untreated SH-SY5Y cells or the cells were treated with 100 mM MSG, 100 mM MSG+15 μM SB, 100 mM MSG+10 μM MK801 (MK) or 5 μM CCCP (disruptor of electron transport chain) for 12 hours. […] The results were shown as mean±SEM, n=3, *p<0.05, comparing to the MSG treatment group.
In the present embodiment, flow cytometry analysis was used to investigate whether silibinin can prevent the reduction of mitochondria membrane potential induced by glutamate in SH-SY5Y cells.
SH-SY5Y cells were seeded in 6 centimeter dish (1×10^6 cells/plate) for 24 hours, and then were pre-treated with 15 μM silibinin or 10 μM MK-801 for 1 hour followed by the treatment of 100 mM MSG for 12 hours. 5 μM carbonyl cyanide m-chlorophenylhydrazone (CCCP) was added to the positive control group to induce the depolarization of mitochondria membrane potential.
The treated cells were washed, centrifuged and collected, followed by PBS wash and JC-1 dye staining for 30 minutes. The stained cells were re-suspended using phosphate buffer solution and analyzed by a flow cytometry to obtain a 2-dimensional scatter plot. 10,000 cells were recorded for each experiment.

SH-SY5Y cells [2] = assay: Western blotting of calpain-2 and SBDP after MSG; format: cell-based, Human; details: 15 μM, 100 mM MSG, 6 hours
Method: The levels of calpain-2 and SBDPs were measured by western blotting in 1×10^6 SH-SY5Y cells, wherein the control group (Ctrl) was untreated SH-SY5Y cells or the cells were treated with 100 mM MSG, 100 mM MSG+15 μM SB or 100 mM MSG+10 μM MK801 (MK) for 6 hours. Actin was used as a loading control.
In present embodiment, western blotting was performed to study whether silibinin protects SH-SY5Y cell from apoptosis due to glutamatergic excitotoxicity via calcium-dependent apoptosis pathway.
Calpain-2, a thiol proteinase, is activated by the increases of intracellular free calcium ions and the reduction of Bcl-2 level. The level of SBDPs was elevated by calcium-induced calpain-2 in glutamate-induced cell death. Therefore, calpain-2 and SBDPs were used as indicators in the present embodiment.
SH-SY5Y cells were treated with silibinin at pre-determined concentrations or 10 μM MK801 for 1 hour followed by the treatment of 100 mM MSG. Western blotting was performed to analyze the levels of calpain-2 and SBDP.

[3] = Body weight of SCA17 transgenic mice; format: in vivo; details: 4.5 mg/kg i.p. once every 2 days, 10 to 20 weeks old
Method: FIGS. 10A-10F show the effects of SB on the body weight and motor performance in SCA17 transgenic mice. Mice were grouped into wild type-saline (WT-saline), transgenic-saline (TG-saline), and transgenic-SB treatment (TG-SB) groups. Mice were injected intraperitoneally with saline or SB (4.5 mg/kg) at 8-week old once every 2 days. […] FIG. 10E and FIG. 10F show respectively the stride length of front-limb/hind-limb at the right-side and the left-side. The values represent means±SD, n=6. *p<0.05, comparing to the TG-saline group.
In order to understand the efficacy of silibinin in treating SCA17 in vivo, SCA17 transgenic mice (referring as SCA17 mice hereinafter) were used, which were kindly provided by Dr. Hsiu-Mei Hsieh in NTNU.
The mice were housed individually in ventilated cages with a 12-hour light/dark cycle. All mice were maintained in the animal facility in NTNU under specific pathogen-free conditions in accordance with institutional guidelines of the Animal Care and Use Committee at NTNU. The experimental animals were used for motor behavioral assessments, footprint test and the protein aggregation analysis in cerebellum.
Since the SCA17 mice were 8 weeks old, the mice were injected intraperitoneally with silibinin in saline at 4.5 mg/kg once every 2 days, designated as TG_SB group. The mice in TG_saline group were injected with same amount of saline.

nTBP/Q79-EGFP cells [4] = assay: Western blotting of caspase family proteins in Dox-induced nTBP/Q79-EGFP cells; format: cell-based; details: Homo sapiens, 120 h, Dox 5 days
Method: (§1) FIGS. 8A-8C show the effects of SB on improving the viability of nTBP/Q79-EGFP cells and inhibiting the expression levels of cleaved caspase-9, cleaved caspase-3, and cleaved PARP in nTBP/Q79-EGFP cells induced by doxycycline (Dox). FIG. 8A: The viabilities of 1.0×10^6 nTBP/Q36-EGFP cells and nTBP/Q79-EGFP cells which were pretreated with 15 μM SB for 1 hour followed by the induction of Dox for 1, 3, and 5 days were measured by MTT assay. FIG. 8B: 1.0×10^6 nTBP/Q36-EGFP cells and nTBP/Q79-EGFP cells were pretreated with 15 μM SB for 1 hour followed by the induction of Dox for 5 days. The levels of cleaved caspase-9, cleaved caspase-3, and cleaved PARP were detected by western blotting. Actin was used as a loading control. […] The results were shown as mean±SD, n=3, *p<0.05, comparing to the Dox group.
Western blotting was used to determine whether silibinin can inhibit cell death due to the expression of nTBP/Q79-EGFP via caspase-dependent apoptosis pathway.
nTBP/Q36-EGFP cells and nTBP/Q79-EGFP cells were treated with 15 μM silibinin for 1 hour followed by the treatment of 10 μg/mL Dox and RA for 5 days.

nTBP/Q79-EGFP cells [5] = assay: MTT viability of Dox-induced nTBP/Q79-EGFP cells; format: cell-based, Human; details: 15 μM, Dox induction 5 days
Method: as §1
Human neuroblastoma SH-SY5Y cell line was obtained from American Type Culture Collection (ATCC). nTBP/Q36-EGFP cells (poly-Q of TATA-binding protein contains 36 glutamines in SH-SY5Y cells) and nTBP/Q79-EGFP cells (poly-Q of TATA-binding protein contains 79 glutamines in SH-SY5Y cells) were kindly supplied by Dr. Guey-Jen Lee-Chen, National Taiwan Normal University (NTNU). […]
The cell viability was measured using MTT colorimetric assay as mentioned previously. […]

COc1cc(C2Oc3cc([C@H]4Oc5cc(O)cc(O)c5C(=O)[C@@H]4O)ccc3OC2CO)ccc1O (some centres unmarked) [silibinin]
MMP compared to Ctrl (SH-SY5Y cells [1]): 85+13%
reduction of SBDP level, compared to the increased level with MSG only (SH-SY5Y cells [2]): 250%
reduction of calpain-2 level, compared to the increased level with MSG only (SH-SY5Y cells [2]): 200%
body weight compared to WT_saline group [3]: no significant differences
inhibition at 15 µM (nTBP/Q79-EGFP cells [4]; read-out: inhibition of cleaved-PARP level): ~44%
inhibition at 15 µM (nTBP/Q79-EGFP cells [4]; read-out: inhibition of cleaved-caspase-3 level): ~100%
inhibition at 15 µM (nTBP/Q79-EGFP cells [4]; read-out: inhibition of cleaved-caspase-9 level): ~88%
increase of cell viability of nTBP/Q79-EGFP cells (nTBP/Q79-EGFP cells [5]): approximately 20%
